Results on 22 compounds are retold here after patent US10047075B2, “Pyridines and pyrimidines and use thereof” (Purdue Pharma L.P., priority 2014, dated 2018).

The structures appear in SMILES notation. Read-outs that look alike come from different tables or passages of the source.

For one test, the target named is human Nav1.7 (Homo sapiens, UniProt Q15858). As to the kind of experiment: FLIPR or FLIPR TETRA sodium dye assay with KCl and test article pre-incubation (CoroNa Green, veratridine + scorpion venom). The format is cell-based.
Another test concerns the target hNav1.7 (Homo sapiens, UniProt Q15858). The test is described as follows: Electrophysiology (EP) assay, whole-cell patch clamp, hNav1.7 expressing HEK-293 cells. The format is cell-based. To be noted: hNav1.7 HEK-293 cells; affinity for the inactivated state; read-out: Nav1.7 Activity (μM) EP assay Ki. The method, then: The hNav1.7 expressing HEK-293 cells are plated on 35 mm culture dishes pre-coated with poly-D-lysine in standard DMEM culture media (Mediatech, Inc., Herndon, Va.) and incubated in a 5% CO2 incubator at 37° C. Cultured cells are used approximately 12-48 hours after plating.
The hNav1.7 expressing HEK-293 cells are plated on tissue culture flasks in standard DMEM culture media (Mediatech, Inc.) and incubated in a 5% CO2 incubator at 37° C. Cultured cells are used approximately 12-48 hours after plating.
On the day of experimentation, the 35 mm dish is placed on the stage of an inverted microscope equipped with a perfusion system that continuously perfuses the culture dish with fresh recording media. A gravity driven superfusion system is used to apply test solutions directly to the cell under evaluation. This “shooter” system consists of an array of glass pipettes connected to a motorized horizontal translator. The outlet of the shooter is positioned approximately 100 μm from the cell of interest.
Whole cell currents are recorded using the whole-cell patch clamp configuration using an Axopatch 200B amplifier (Axon Instruments, Foster City Calif.), 1322A A/D converter (Axon Instruments) and pClamp software (v. 8; Axon Instruments) and stored on a personal computer. Gigaseals are formed and the whole-cell configuration is established in voltage clamp mode, and membrane currents generated by hNav1.7 channels are recorded. Borosilicate glass pipettes with resistance values between 1.5 and 2.0 MΩ when filled with pipette solution are used and series resistance (<5 MΩ) is compensated by 75-80%. Signals are sampled at 50 kHz and low pass filtered at 3 kHz.
Automated Electrophysiology: On the day of experimentation, cells are prepared by removing media and digesting with appropriate enzymes to suspend cells in external solution.
Whole cell currents are recorded using the whole-cell patch clamp configuration using an Patchliner (Nanion Technologies, Munich Germany), EPC 10 quadro amplifiers (HEKA, Bellmore, N.Y.) and PatchControl HT 10905 (Nanion Technologies) and PatchMaster v2x73 software (HEKA) and stored on a personal computer. Gigaseals are formed and the whole-cell configuration is established in voltage clamp mode, and membrane currents generated by hNav1.7 are recorded. NPC-16 chips have resistance values between 1.0 and 2.0 MΩ when filled with pipette solution and series resistance (<5 MΩ). Signals are sampled at 25 kHz and low pass filtered at 3 kHz.
After establishing the whole-cell configuration in voltage clamp mode, voltage protocols are run to establish the 1) test potential (Vmax), 2) holding potential (Vh), and 3) the conditioning potential for each cell.
After establishing the whole-cell configuration in voltage clamp mode, a standard I-V protocol is run to determine the potential at which the maximal current (Imax) is elicited. This potential is the test potential (Vt). To determine a conditioning potential at which 100% of channels are in the inactivated state, a standard steady-state inactivation (SSIN) protocol is run using a series of fifteen 100 ms-long depolarizing prepulses, incrementing in 10 mV steps, immediately followed by a 5 ms testing pulse to Vmax. This protocol also permits determination of the holding potential at which all channels are in the resting state.
For compounds causing significant retardation of recovery from inactivation, an estimate of the affinity for the inactivated state of the channel (Ki) is generated using the following protocol. From the negative, no residual inactivation, holding potential, the cell is depolarized to the conditioning voltage for 2-5 seconds, returned to the negative holding potential for 10-20 ms to relieve fast inactivation and then depolarized to the test potential for ˜15 ms. This voltage protocol is repeated every 10-15 seconds, first to establish a baseline in the absence of the test compound, then in the presence of the test compound. […]
Background: In patch-clamp work, channel activity is measured electrically.

The mark [1] stands for this setting: recombinant human Nav1.7 in HEK293 cells.

Chain of hNav1.7 (Q15858 1-1977 isoform Q15858-3): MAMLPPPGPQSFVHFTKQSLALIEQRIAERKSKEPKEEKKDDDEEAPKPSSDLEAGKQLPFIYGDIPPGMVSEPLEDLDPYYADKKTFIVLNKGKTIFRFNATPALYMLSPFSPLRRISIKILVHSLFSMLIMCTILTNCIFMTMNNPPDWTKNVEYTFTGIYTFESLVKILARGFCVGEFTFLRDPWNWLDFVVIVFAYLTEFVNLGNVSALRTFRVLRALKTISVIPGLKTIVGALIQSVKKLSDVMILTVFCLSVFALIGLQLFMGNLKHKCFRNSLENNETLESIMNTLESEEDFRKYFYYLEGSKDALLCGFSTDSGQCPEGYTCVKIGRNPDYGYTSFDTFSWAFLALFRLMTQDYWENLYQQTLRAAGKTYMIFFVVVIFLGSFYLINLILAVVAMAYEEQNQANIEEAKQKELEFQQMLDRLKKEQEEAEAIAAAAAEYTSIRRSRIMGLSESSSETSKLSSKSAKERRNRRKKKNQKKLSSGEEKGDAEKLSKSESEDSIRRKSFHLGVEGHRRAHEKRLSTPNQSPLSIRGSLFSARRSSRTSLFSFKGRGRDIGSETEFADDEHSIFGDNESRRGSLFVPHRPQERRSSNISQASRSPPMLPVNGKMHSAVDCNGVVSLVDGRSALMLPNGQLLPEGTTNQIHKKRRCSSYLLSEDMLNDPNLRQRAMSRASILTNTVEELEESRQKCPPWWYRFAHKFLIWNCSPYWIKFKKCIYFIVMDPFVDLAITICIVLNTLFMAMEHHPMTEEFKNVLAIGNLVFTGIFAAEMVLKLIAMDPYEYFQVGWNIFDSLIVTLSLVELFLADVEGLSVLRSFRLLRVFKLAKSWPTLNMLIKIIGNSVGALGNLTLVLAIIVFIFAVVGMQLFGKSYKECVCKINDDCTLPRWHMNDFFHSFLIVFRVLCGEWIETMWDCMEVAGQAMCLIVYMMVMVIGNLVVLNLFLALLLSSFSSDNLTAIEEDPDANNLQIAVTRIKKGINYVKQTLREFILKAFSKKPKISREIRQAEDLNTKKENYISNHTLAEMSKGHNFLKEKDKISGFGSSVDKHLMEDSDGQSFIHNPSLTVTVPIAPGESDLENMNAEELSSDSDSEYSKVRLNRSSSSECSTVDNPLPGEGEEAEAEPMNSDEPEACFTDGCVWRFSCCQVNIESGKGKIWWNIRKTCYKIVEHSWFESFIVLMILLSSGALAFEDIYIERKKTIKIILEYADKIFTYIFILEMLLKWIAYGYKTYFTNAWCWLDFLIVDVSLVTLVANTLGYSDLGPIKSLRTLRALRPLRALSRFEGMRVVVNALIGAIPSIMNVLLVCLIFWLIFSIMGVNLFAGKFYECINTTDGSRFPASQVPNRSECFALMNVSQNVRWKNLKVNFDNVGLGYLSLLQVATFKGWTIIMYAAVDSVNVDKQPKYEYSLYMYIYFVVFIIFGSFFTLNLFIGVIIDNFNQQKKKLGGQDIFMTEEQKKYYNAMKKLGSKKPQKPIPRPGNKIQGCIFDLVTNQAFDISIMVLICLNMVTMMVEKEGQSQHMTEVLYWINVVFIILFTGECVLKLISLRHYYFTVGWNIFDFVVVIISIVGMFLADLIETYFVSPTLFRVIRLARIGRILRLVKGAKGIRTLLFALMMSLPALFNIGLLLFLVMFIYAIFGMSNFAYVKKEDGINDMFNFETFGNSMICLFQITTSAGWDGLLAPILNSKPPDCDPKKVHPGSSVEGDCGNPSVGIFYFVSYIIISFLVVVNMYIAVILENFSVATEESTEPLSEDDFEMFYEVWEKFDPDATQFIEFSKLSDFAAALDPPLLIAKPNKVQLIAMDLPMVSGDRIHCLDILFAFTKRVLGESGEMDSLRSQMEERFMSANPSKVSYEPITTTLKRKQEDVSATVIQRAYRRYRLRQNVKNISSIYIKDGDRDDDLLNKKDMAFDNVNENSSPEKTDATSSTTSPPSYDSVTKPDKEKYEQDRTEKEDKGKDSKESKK
Chain of human Nav1.7 (Q15858 1-1977 isoform Q15858-3): as above

As for `O=C(CO)N1CCN(c2ccc(C(F)(F)F)cc2)c2ccc(-c3cccc([C@H](O)CO)n3)cc2C1` [Compound 99, (S)-1-(7-(6-(1,2-dihydroxyethyl)pyridin-2-yl)-1-(4-(trifluoromethyl)phenyl)-1,2,3,5-tetrahydro-4H-benzo[e][1,4]diazepin-4-yl)-2-hydroxyethan-1-one], on human Nav1.7 (setting [1]), the IC50 is 0.896 ± 0.186 µM. In addition, at hNav1.7, the Ki amounted to 1.23 ± 0.364 µM.
For `NC(=O)c1cccc(-c2ccc3c(c2)OCCC3c2ccc(C(F)(F)F)cc2)n1` (stereo not drawn) [Compound 110, 6-(4-(4-(trifluoromethyl)-phenyl)chroman-7-yl)-picolinamide], in that order: 0.142 ± 0.038 µM and 0.161 ± 0.07 µM.
Consider `CN1CCN(c2ccc(C(F)(F)F)cc2)c2ccc(-c3cccc(C(N)=O)n3)cc2C1` [Compound 85, 6-(4-methyl-1-(4-(trifluoromethyl)phenyl)-2,3,4,5-tetrahydro-1H-benzo[e][1,4]diazepin-7-yl)picolinamide], for which the IC50 at human Nav1.7 (setting [1]) is 0.607 ± 0.086 µM. Besides, the Ki at hNav1.7 turned out to be 0.399 ± 0.2 µM.
Consider `CC(C)CN1CCN(S(C)(=O)=O)Cc2cc(-c3cccc([C@H](O)CO)n3)ccc21` [Compound 124, (S)-1-(6-(1-isobutyl-4-(methylsulfonyl)-2,3,4,5-tetrahydro-1H-benzo-[e][1,4]diazepin-7-yl)pyridin-2-yl)ethane-1,2-diol], for which the Ki on hNav1.7 was found to be 2.14 ± 0.586 µM.
On to `C[C@H](Nc1cc(C(N)=O)nc(-c2ccc3c(c2)OCCC3c2ccc(C(F)(F)F)cc2)n1)C(N)=O` (stereo partly drawn) [Compound 111, 6-(((S)-1-amino-1-oxopropan-2-yl)amino)-2-(4-(4-(trifluoromethyl)phenyl)chroman-7-yl)pyrimidine-4-carboxamide], for which the IC50 at human Nav1.7 (setting [1]) was 0.379 ± 0.044 µM. The Ki at hNav1.7 is 0.459 ± 0.1 µM.
For the compound `NC(=O)CN1CCN(c2ccc(C(F)(F)F)cc2)c2ccc(-c3cccc([C@H](O)CO)n3)cc2C1` [Compound 103, (S)-2-(7-(6-(1,2-dihydroxyethyl)pyridin-2-yl)-1-(4-(trifluoromethyl)phenyl)-1,2,3,5-tetrahydro-4H-benzo[e][1,4]diazepin-4-yl)acetamide], at human Nav1.7, the IC50 came out at 1.05 ± 0.055 µM. Also, the Ki on hNav1.7 was determined as 0.299 ± 0.068 µM.
The corresponding values for `OC[C@@H](O)c1cccc(-c2ccc3c(c2)CN(CC2CC2)CCN3c2ccc(C(F)(F)F)cc2)n1` [Compound 87, (S)-1-(6-(4-(cyclopropylmethyl)-1-(4-(trifluoromethyl)phenyl)-2,3,4,5-tetrahydro-1H-benzo[e][1,4]diazepin-7-yl)pyridin-2-yl)ethane-1,2-diol] are 1.32 ± 0.133 µM and 0.548 ± 0.089 µM.
For `NC(=O)N1CCN(c2ccc(C(F)(F)F)cc2)c2ccc(-c3cccc([C@H](O)CO)n3)cc2C1` [Compound 98, (S)-7-(6-(1,2-dihydroxyethyl)pyridin-2-yl)-1-(4-(trifluoromethyl)phenyl)-1,2,3,5-tetrahydro-4H-benzo[e][1,4]diazepin-4-carboxamide], in that order: 0.973 ± 0.099 µM and 0.451 ± 0.092 µM.
Regarding `CC(C)CN1CCN(S(C)(=O)=O)Cc2cc(-c3cccc([C@H](O)[C@@H](O)C(N)=O)n3)ccc21` [Compound 125, (2R,3S)-2,3-dihydroxy-3-(6-(1-isobutyl-4-(methylsulfonyl)-2,3,4,5-tetrahydro-1H-benzo[e][1,4]diazepin-7-yl)pyridin-2-yl)propanamide], the Ki at hNav1.7 stood at 7.1 ± 2.45 µM.
For `CC(=O)N1CCN(c2ccc(C(F)(F)F)cc2)c2ccc(-c3cccc(C(N)=O)n3)cc2C1` [Compound 91, 6-(4-acetyl-1-(4-(trifluoromethyl)phenyl)-2,3,4,5-tetrahydro-1H-benzo[e][1,4]diazepin-7-yl)picolinamide], the IC50 on human Nav1.7 (setting [1]) turned out to be 0.375 ± 0.062 µM. The Ki on hNav1.7 is 0.3 ± 0.033 µM.
Take `OC[C@@H](O)c1cccc(-c2ccc3c(c2)CCCCN3C2CCC(F)(F)CC2)n1` [Compound 76, (S)-1-(6-(1-(4,4-difluorocyclohexyl)-2,3,4,5-tetrahydro-1H-benzo[b]azepin-7-yl)pyridin-2-yl)ethane-1,2-diol]: the IC50 at human Nav1.7 (setting [1]) amounted to 0.526 ± 0.034 µM.
As to `C[C@H](Nc1cc(C(N)=O)nc(-c2ccc3c(c2)OCCCN3c2ccc(C(F)(F)F)cc2)n1)C(N)=O` [Compound 63, (S)-6-((1-amino-1-oxopropan-2-yl)amino)-2-(5-(4-(trifluoromethyl)phenyl)-2,3,4,5-tetrahydrobenzo[b][1,4]oxazepin-8-yl)pyrimidine-4-carboxamide], the concentration for half-maximal inhibition (IC50) at human Nav1.7 (setting [1]) was found to be 0.246 ± 0.029 µM. The Ki on hNav1.7 worked out at 0.344 ± 0.1 µM.
For `NC(=O)c1cc(O[C@H]2CCNC2=O)nc(-c2ccc3c(c2)OCCCN3c2ccc(C(F)(F)F)cc2)n1` [Compound 82, (S)-6-((2-oxopyrrolidin-3-yl)oxy)-2-(5-(4-(trifluoromethyl)phenyl)-2,3,4,5-tetrahydrobenzo-[b][1,4]oxazepin-8-yl)pyrimidine-4-carboxamide], the IC50 at human Nav1.7 (setting [1]) stood at 0.211 ± 0.038 µM.
As for `OC[C@@H](O)c1cccc(-c2ccc3c(c2)COCCN3c2ccc(C(F)(F)F)cc2)n1` [Compound 62, (S)-1-(6-(1-(4-(trifluoromethyl)phenyl)-1,2,3,5-tetrahydrobenzo[e][1,4]oxazepin-7-yl)pyridin-2-yl)ethane-1,2-diol], the IC50 at human Nav1.7 (setting [1]) came to 0.419 ± 0.058 µM. The Ki at hNav1.7 was 0.458 ± 0.078 µM.
Consider `NC(=O)CN1CCN(C2CCCCC2)c2ccc(-c3cccc([C@H](O)CO)n3)cc2C1` [Compound 104, (S)-2-(1-cyclohexyl-7-(6-(1,2-dihydroxyethyl)pyridin-2-yl)-1,2,3,5-tetrahydro-4H-benzo[e][1,4]diazepin-4-yl)acetamide], for which the IC50 on human Nav1.7 (setting [1]) is 2.61 ± 0.047 µM.
The same measure, in the same setting: the value for `N#CCN1CCN(c2ccc(C(F)(F)F)cc2)c2ccc(-c3cccc([C@H](O)CO)n3)cc2C1` [Compound 106, (S)-2-(7-(6-(1,2-dihydroxyethyl)pyridin-2-yl)-1-(4-(trifluoromethyl)phenyl)-1,2,3,5-tetrahydro-4H-benzo[e][1,4]diazepin-4-yl)acetonitrile] was 0.581 ± 0.038 µM.
Still for that read-out and setting: as for `NC(=O)c1cccc(-c2ccc3c(c2)OCCCN3c2ccc(C(F)(F)F)cc2)n1` [Compound 65, 6-(5-(4-(trifluoromethyl)-phenyl)-2,3,4,5-tetrahydrobenzo[b][1,4]oxazepin-8-yl)picolinamide], the figure is 0.338 ± 0.034 µM; as for `NC(=O)c1cccc(-c2ccc3c(c2)CCCCN3c2ccc(C(F)(F)F)cc2)n1` [Compound 58, 6-(1-(4-(trifluoromethyl)phenyl)-2,3,4,5-tetrahydro-1H-benzo[b]azepin-7-yl)picolinamide], 0.357 ± 0.015 µM; as for `CCNC(=O)N1CCN(c2ccc(C(F)(F)F)cc2)c2ccc(-c3cccc([C@H](O)CO)n3)cc2C1` [Compound 97, (S)-7-(6-(1,2-dihydroxyethyl)pyridin-2-yl)-N-ethyl-1-(4-(trifluoromethyl)phenyl)-1,2,3,5-tetrahydro-4H-benzo[e][1,4]diazepin-4-carboxamide], 2.62 ± 0.1 µM.
With `CC(=O)N1CCN(c2ccc(C(F)(F)F)cc2)c2ccc(-c3cccc([C@H](O)CO)n3)cc2C1` [Compound 96, (S)-1-(7-(6-(1,2-dihydroxyethyl)pyridin-2-yl)-1-(4-(trifluoromethyl)phenyl)-1,2,3,5-tetrahydro-4H-benzo[e][1,4]diazepin-4-yl)ethan-1-one], on human Nav1.7 (setting [1]), the IC50 amounted to 0.662 ± 0.035 µM. The Ki on hNav1.7 stood at 0.627 ± 0.134 µM.
For `O=S(=O)(c1ccc(C(F)(F)F)cc1)N1CCCc2cc(-c3cccc([C@H](O)CO)n3)ccc21` [Compound 78, (S)-1-(6-(1-((4-(trifluoromethyl)-phenyl)sulfonyl)-1,2,3,4-tetrahydroquinolin-6-yl)pyridin-2-yl)ethane-1,2-diol], at human Nav1.7 (setting [1]), the half-inhibitory concentration (IC50) amounted to 0.857 ± 0.103 µM.
`OC[C@@H](O)c1cccc(-c2ccc3c(c2)CCCN3Cc2ccc(C(F)(F)F)cc2)n1` [Compound 81, (S)-1-(6-(1-(4-(trifluoromethyl)benzyl)-1,2,3,4-tetrahydroquinolin-6-yl)pyridin-2-yl)ethane-1,2-diol]: the IC50 on human Nav1.7 (setting [1]) was 0.091 ± 0.025 µM.

As usually defined, the IC50 is the midpoint of a concentration-inhibition curve.
